Test results taken from paper PMC11364775, “Ion occupancy of the selectivity filter controls opening of a cytoplasmic gate in the K2P channel TALK-2” (Nature Communications, 2024).

How the values were obtained:
[1] = biological target: T1, WT TALK-2 channels (human K2P17.1) (Homo sapiens, UniProt Q96T54); assay: Inside-out patch-clamp, ligand activation of channel currents at +40 mV (oocytes); conditions: 5 µM; TALK-2 WT
T1 sequence (Q96T54 1-332): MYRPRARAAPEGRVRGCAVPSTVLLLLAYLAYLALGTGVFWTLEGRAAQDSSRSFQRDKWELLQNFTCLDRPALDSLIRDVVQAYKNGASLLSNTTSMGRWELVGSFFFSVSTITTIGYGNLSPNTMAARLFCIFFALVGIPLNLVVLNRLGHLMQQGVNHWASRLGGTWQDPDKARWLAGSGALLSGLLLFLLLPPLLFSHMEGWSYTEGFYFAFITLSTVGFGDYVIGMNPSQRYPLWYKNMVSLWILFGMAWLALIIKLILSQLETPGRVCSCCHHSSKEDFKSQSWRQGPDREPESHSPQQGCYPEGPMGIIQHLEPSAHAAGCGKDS
Experimental: Oocytes were surgically removed from anesthetized adult females, treated with type II collagenase (Sigma-Aldrich/Merck, Germany) and manually defolliculated. 50 nl of a solution containing the K^+ channel specific cRNA was injected into Dumont stage V - VI oocytes and subsequently incubated at 17 °C in a solution containing (mM): 54 NaCl, 30 KCl, 2.4 NaHCO3, 0.82 MgSO4 x 7 H2O, 0.41 CaCl2, 0.33 Ca(NO3)2 x 4 H2O and 7.5 TRIS (pH 7.4 adjusted with NaOH/HCl) for 1–7 days before use. Electrophysiological recordings: Excised patch measurements in inside-out configuration under voltage-clamp conditions were performed at room temperature (22 – 24 °C). […] Intracellular bath solutions and compounds were applied to the cytoplasmic side of excised patches for the various K^+ channels via a gravity flow multi-barrel pipette system. Intracellular solution had the following composition (in mM): 120 KCl, 10 HEPES, 2 EGTA and 1 Pyrophosphate (pH adjusted with KOH/HCl). In other intracellular bath solutions, K^+ was replaced by Rb^+ (pH 7.4 adjusted with RbOH/HCl). Currents were recorded with an EPC10 amplifier (HEKA electronics, Germany) and sampled at 10 kHz or higher and filtered with 3 kHz (-3 dB) or higher as appropriate for sampling rate.
Recorded currents were analyzed from stable membrane patches at a voltage defined in the respective figure legend or with a voltage protocol as indicated in the respective figure. The fold activation (fold change in (tail) current amplitude) of a ligand (drug or bioactive lipid) was calculated from Eq. 1:1 Fold activationFA=Iactivated/Ibasal where Iactivated represents the stable current level in the presence of a given concentration of a respective ligand and Ibasal the measured current before ligand application. Percentage inhibition or residual currents upon blocker application for a ligand (drug or bioactive lipid) was calculated from stable currents of excised membrane patches using the following Eqs. 2 and 3:2 %inhibition=1−Iinhibited/Ibasal*100 3 Residual current=100−%inhibition where Iinhibited refers to the stable current level recorded in the presence of a given concentration of a drug or bioactive lipid and Ibasal to the measured current before ligand application. The macroscopic half-maximal concentration-inhibition relationship of a ligand was obtained using a Hill-fit for dose-response curves as depicted in Eq. 4:4 %inhibition/activation=Ibase+Imax−Ibase/1+x1/2/x^rate where base and max are the currents in the absence and presence of a respective ligand, x is the concentration of the ligand, x1/2 is the ligand concentration at which the activatory or inhibitory effect is half-maximal, rate is the Hill coefficient.

WT TALK-2 channels = biological target: T2, WT TALK-2 channels (Homo sapiens, UniProt Q96T54); assay: Conductance-voltage (G-V) curves from tail currents, V1/2 (intracellular Rb+); assay type: cell-based; parameters: expressed in transfected cells; host or cells: Xenopus laevis oocytes (cRNA injection), excised inside-out patches; conditions: for Normalized current: TALK-2 WT + 5 µM Oleoyl-CoA
T2 sequence (Q96T54 1-332): T1 sequence (Q96T54 1-332)
Text: The voltage-dependent activation mechanism of the SF gate in K2P channels allows to estimate the electrical work (ΔG = zFΔV1/2) required for pore opening by fitting the G–V curve to a Boltzmann equation. […] The open state represents the situation of both gates being simultaneously open but voltage can only exert force on the SF gate that functions as voltage sensor. […] We further tested whether mutations that open the lower gate (L262A and L264A) would affect the extracellular pH sensitivity. […] We further explored this concept of allosteric coupling using the mutations identified in the functional alanine screen of TM2 and TM4. […]
Conductance-voltage (G–V) relationships were determined from tail currents recorded at a holding potential (VH) of −80 mV after 300 ms depolarizing steps as indicated in the respective figure legend. Data were analyzed with a single Boltzmann fit following Eq. 6:6 GV=Imax/1+e^V−V1/2/slope+Ibase where V1/2 represents the voltage of half-maximal activation, s is the slope factor and Imax and Ibase represent the upper and lower asymptotes. Under appropriate experimental conditions, you can use slope to calculate the valence (charge) of the ion moving across the channel. Slope equals R * T/ z * F where R is the universal gas constant, T is temperature in K, F is the Faraday constant, and z is the valence.

SMILES: CCCCCCCC/C=C\CCCCCCCC(=O)SCCNC(=O)CCNC(=O)[C@H](O)C(C)(C)COP(=O)(O)OP(=O)(O)OC[C@H]1O[C@@H](n2cnc3c(N)ncnc32)[C@H](O)[C@@H]1OP(=O)(O)O [oleoyl-CoA]
- Fold activation 5 µM oleoyl-CoA [1]: 19.13 fold
- V1/2 shift (mV) (WT TALK-2 channels; 5 µM Oleoyl-CoA, shift of G-V curve): 26.7 mV
- Normalized current (WT TALK-2 channels; Voltage 0.000): 0.186
- Normalized current (WT TALK-2 channels; Voltage 0.005): 0.210
- Normalized current (WT TALK-2 channels; Voltage 0.010): 0.238
- Normalized current (WT TALK-2 channels; Voltage 0.015): 0.274
- Normalized current (WT TALK-2 channels; Voltage 0.020): 0.318
- Normalized current (WT TALK-2 channels; Voltage 0.025): 0.366
- Normalized current (WT TALK-2 channels; Voltage 0.030): 0.416
- Normalized current (WT TALK-2 channels; Voltage 0.035): 0.467
- Normalized current (WT TALK-2 channels; Voltage 0.040): 0.514
- Normalized current (WT TALK-2 channels; Voltage 0.045): 0.557
- Normalized current (WT TALK-2 channels; Voltage 0.050): 0.597
- Normalized current (WT TALK-2 channels; Voltage 0.055): 0.633
- Normalized current (WT TALK-2 channels; Voltage 0.060): 0.668
- Normalized current (WT TALK-2 channels; Voltage 0.065): 0.699
- Normalized current (WT TALK-2 channels; Voltage 0.070): 0.727
- Normalized current (WT TALK-2 channels; Voltage 0.075): 0.755
- Normalized current (WT TALK-2 channels; Voltage 0.080): 0.778
- Normalized current (WT TALK-2 channels; Voltage 0.085): 0.804
- Normalized current (WT TALK-2 channels; Voltage 0.090): 0.822
- Normalized current (WT TALK-2 channels; Voltage 0.095): 0.844
- Normalized current (WT TALK-2 channels; Voltage 0.100): 0.861
- Normalized current (WT TALK-2 channels; Voltage 0.105): 0.882
- Normalized current (WT TALK-2 channels; Voltage 0.110): 0.895
- Normalized current (WT TALK-2 channels; Voltage 0.115): 0.911
- Normalized current (WT TALK-2 channels; Voltage 0.120): 0.926
- Normalized current (WT TALK-2 channels; Voltage 0.125): 0.934
- Normalized current (WT TALK-2 channels; Voltage 0.130): 0.943
- Normalized current (WT TALK-2 channels; Voltage 0.135): 0.956
- Normalized current (WT TALK-2 channels; Voltage 0.140): 0.963
- Normalized current (WT TALK-2 channels; Voltage 0.145): 0.968
- Normalized current (WT TALK-2 channels; Voltage 0.150): 0.977
- Normalized current (WT TALK-2 channels; Voltage 0.155): 0.979
- Normalized current (WT TALK-2 channels; Voltage 0.160): 0.985
- Normalized current (WT TALK-2 channels; Voltage -0.005): 0.170
- Normalized current (WT TALK-2 channels; Voltage -0.010): 0.157
- Normalized current (WT TALK-2 channels; Voltage -0.015): 0.148
- Normalized current (WT TALK-2 channels; Voltage -0.020): 0.137
- Normalized current (WT TALK-2 channels; Voltage -0.025): 0.129
- Normalized current (WT TALK-2 channels; Voltage -0.030): 0.123
- Normalized current (WT TALK-2 channels; Voltage -0.035): 0.120
- Normalized current (WT TALK-2 channels; Voltage -0.040): 0.115
- Normalized current (WT TALK-2 channels; Voltage -0.045): 0.109
- Normalized current (WT TALK-2 channels; Voltage -0.050): 0.104
- Normalized current (WT TALK-2 channels; Voltage -0.055): 0.102
- Normalized current (WT TALK-2 channels; Voltage -0.060): 0.097
- Normalized current (WT TALK-2 channels; Voltage -0.065): 0.093
- Normalized current (WT TALK-2 channels; Voltage -0.070): 0.092
- Normalized current (WT TALK-2 channels; Voltage -0.075): 0.089
- Normalized current (WT TALK-2 channels; Voltage -0.080): 0.088
- Normalized current (WT TALK-2 channels; Voltage -0.085): 0.088
- Normalized current (WT TALK-2 channels; Voltage -0.090): 0.087
- Normalized current (WT TALK-2 channels; Voltage -0.095): 0.087
- Normalized current (WT TALK-2 channels; Voltage -0.100): 0.087
- Normalized current (WT TALK-2 channels; Voltage -0.105): 0.086
- Normalized current (WT TALK-2 channels; Voltage -0.110): 0.086
- Normalized current (WT TALK-2 channels; Voltage -0.115): 0.086
- Normalized current (WT TALK-2 channels; Voltage -0.120): 0.086
- V1/2 (WT TALK-2 channels; TALK-2 WT, 5 µM ligand): 44.9 mV
